Experimental data from patent publication US20100056508A1, “AMINE DERIVATIVES AND THEIR USE IN BETA-2-ADRENORECEPTOR MEDIATED DISEASES” (ASTRAZENECA AB, priority 2006, published 2010).

Experiments:
Adrenergic β2 = target: T1, Adrenergic β2 (Homo sapiens, UniProt P07550); assay: Adrenergic β2 mediated cAMP production in H292 cells (AlphaScreen cAMP detection); assay type: cell-based; design: key to β2 Int Act: fraction of formoterol maximum activity (formoterol = 1); details: for β2 Int Act: Intrinsic Activity as a fraction relative to the maximum activity determined for formoterol; for EC50: cAMP production, 60 minutes at room temperature, 300 μM rolipram, read-out: β2 pEC50 (converted)
T1 construct: Adherent H292 cells were removed from tissue culture flasks; endogenous in cells; host or cells: H292 cells
T1 sequence (P07550 whole entry): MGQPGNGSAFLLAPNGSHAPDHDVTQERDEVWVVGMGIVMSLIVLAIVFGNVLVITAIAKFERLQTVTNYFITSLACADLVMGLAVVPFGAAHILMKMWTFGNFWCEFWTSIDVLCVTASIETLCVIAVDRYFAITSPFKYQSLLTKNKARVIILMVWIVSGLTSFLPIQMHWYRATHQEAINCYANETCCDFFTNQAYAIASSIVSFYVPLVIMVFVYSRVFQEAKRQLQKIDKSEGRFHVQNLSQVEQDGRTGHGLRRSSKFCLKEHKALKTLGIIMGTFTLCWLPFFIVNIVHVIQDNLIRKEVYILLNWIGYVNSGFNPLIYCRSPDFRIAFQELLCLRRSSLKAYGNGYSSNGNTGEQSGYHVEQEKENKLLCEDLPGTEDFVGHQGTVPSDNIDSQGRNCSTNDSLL
Description: Adrenergic β2 Mediated cAMP Production
H292 cells were grown in 225 cm2 flasks incubator at 37° C., 5% CO2 in RPMI medium containing, 10% (v/v) FBS (foetal bovine serum) and 2 mM L-glutamine.
Adherent H292 cells were removed from tissue culture flasks by treatment with Accutase™ cell detachment solution for 15 minutes. Flasks were incubated for 15 minutes in a humidified incubator at 37° C., 5% CO2. Detached cells were re-suspended in RPMI media (containing 10% (v/v) FBS and 2 mM L-glutamine) at 1×10^6 cells per mL. 10000 cells in 100 μL were added to each well of a tissue-culture-treated 96-well plate and the cells incubated overnight in a humidified incubator at 37° C., 5% CO2. The culture media was removed and cells were washed twice with 100 μL assay buffer and replaced with 50 μL assay buffer (HBSS solution containing 10 mM HEPES pH7.4 and 5 mM glucose). Cells were rested at room temperature for 20 minutes after which time 25 μL of rolipram (1.2 mM made up in assay buffer containing 2.4% (v/v) dimethylsulphoxide) was added. Cells were incubated with rolipram for 10 minutes after which time test compounds were added and the cells were incubated for 60 minutes at room temperature. The final rolipram concentration in the assay was 300 μM and final vehicle concentration was 1.6% (v/v) dimethylsulphoxide. The reaction was stopped by removing supernatants, washing once with 100 μL assay buffer and replacing with 50 μL lysis buffer. The cell monolayer was frozen at −80° C. for 30 minutes (or overnight).
AlphaScreen™ cAMP Detection
The concentration of cAMP (cyclic adenosine monophosphate) in the cell lysate was determined using AlphaScreen™ methodology. The frozen cell plate was thawed for 20 minutes on a plate shaker then 10 μL of the cell lysate was transferred to a 96-well white plate. 40 μL of mixed AlphaScreen™ detection beads pre-incubated with biotinylated cAMP, was added to each well and the plate incubated at room temperature for 10 hours in the dark. The AlphaScreen™ signal was measured using an EnVision spectrophotometer (Perkin-Elmer Inc.) with the recommended manufacturer's settings. cAMP concentrations were determined by reference to a calibration curve determined in the same experiment using standard cAMP concentrations. Concentration response curves for agonists were constructed and data was fitted to a four parameter logistic equation to determine both the pEC50 and Intrinsic Activity. Intrinsic Activity was expressed as a fraction relative to the maximum activity determined for formoterol in each experiment.

[1] = target: T2, recombinant human adrenergic beta 1 receptors (Homo sapiens, UniProt P08588); assay: Adrenergic β1 selectivity assay, [125I]-Iodocyanopindolol binding to membranes; details: inhibition of [125I]-Iodocyanopindolol binding, read-out: β1 bind pIC50 (converted)
T2 construct: purchased Euroscreen
T2 sequence (P08588 whole entry): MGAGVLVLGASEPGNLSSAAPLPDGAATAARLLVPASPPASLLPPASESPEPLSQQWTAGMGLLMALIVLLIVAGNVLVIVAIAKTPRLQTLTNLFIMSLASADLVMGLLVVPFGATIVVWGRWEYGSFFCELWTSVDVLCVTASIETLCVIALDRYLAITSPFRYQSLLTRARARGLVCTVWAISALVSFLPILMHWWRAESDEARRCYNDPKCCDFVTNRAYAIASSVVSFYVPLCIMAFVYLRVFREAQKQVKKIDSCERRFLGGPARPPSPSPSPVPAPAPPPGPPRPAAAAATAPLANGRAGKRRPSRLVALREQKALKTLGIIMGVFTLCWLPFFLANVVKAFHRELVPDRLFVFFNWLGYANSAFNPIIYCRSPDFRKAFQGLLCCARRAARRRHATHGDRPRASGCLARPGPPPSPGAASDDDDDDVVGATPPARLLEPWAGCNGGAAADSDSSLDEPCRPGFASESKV
Description: (§1) Membranes containing recombinant human adrenergic beta 1 receptors were obtained from Euroscreen. These were diluted in Assay Buffer (50 mM HEPES, 1 mM EDTA, 120 mM NaCl, 0.1% gelatin, pH 7.4) to provide a final concentration of membranes that gave a clear window between maximum and minimum specific binding.
(§2) Assays were performed in U-bottomed 96-well polypropylene plates. 10 μL [^125I]-Iodocyanopindolol (0.036 nM final concentration) and 10 μL of test compound (10× final concentration) were added to each test well. For each assay plate 8 replicates were obtained for [^125I]-Iodocyanopindolol binding in the presence of 10 μL vehicle (10% (v/v) DMSO in Assay Buffer; defining maximum binding) or 10 μL Propranolol (10 μM final concentration; defining non-specific binding (NSB)). Membranes were then added to achieve a final volume of 100 μL. The plates were incubated for 2 hours at room temperature and then filtered onto PEI coated GF/B filter plates, pre-soaked for 1 hour in Assay Buffer, using a 96-well plate Tomtec cell harvester. Five washes with 250 μL wash buffer (50 mM HEPES, 1 mM EDTA, 120 mM NaCl, pH 7.4) were performed at 4° C. to remove unbound radioactivity. The plates were dried then sealed from underneath using Packard plate sealers and MicroScint-O (50 μL) was added to each well. The plates were sealed (TopSeal A) and filter-bound radioactivity was measured with a scintillation counter (TopCount, Packard BioScience) using a 3-minute counting protocol.
(§3) Total specific binding (B0) was determined by subtracting the mean NSB from the mean maximum binding. NSB values were also subtracted from values from all other wells. […] Data was fitted to a four parameter logistic equation to determine the compound potency, which was expressed as pIC50 (negative log molar concentration inducing 50% inhibition of [^125I]-Iodocyanopindolol binding).

[2] = target: T3, recombinant human α1D receptor (Homo sapiens, UniProt P25100); assay: Adrenergic α1D selectivity assay, [3H]-prazosin binding to membranes; details: inhibition of [3H]-prazosin binding, HEK cell membranes, read-out: α1 bind pIC50 (converted)
T3 construct: expressed in transfected cells; host or cells: human embryonic kidney 293 cells (HEK93 [sic]), membranes
T3 sequence (P25100 1-572): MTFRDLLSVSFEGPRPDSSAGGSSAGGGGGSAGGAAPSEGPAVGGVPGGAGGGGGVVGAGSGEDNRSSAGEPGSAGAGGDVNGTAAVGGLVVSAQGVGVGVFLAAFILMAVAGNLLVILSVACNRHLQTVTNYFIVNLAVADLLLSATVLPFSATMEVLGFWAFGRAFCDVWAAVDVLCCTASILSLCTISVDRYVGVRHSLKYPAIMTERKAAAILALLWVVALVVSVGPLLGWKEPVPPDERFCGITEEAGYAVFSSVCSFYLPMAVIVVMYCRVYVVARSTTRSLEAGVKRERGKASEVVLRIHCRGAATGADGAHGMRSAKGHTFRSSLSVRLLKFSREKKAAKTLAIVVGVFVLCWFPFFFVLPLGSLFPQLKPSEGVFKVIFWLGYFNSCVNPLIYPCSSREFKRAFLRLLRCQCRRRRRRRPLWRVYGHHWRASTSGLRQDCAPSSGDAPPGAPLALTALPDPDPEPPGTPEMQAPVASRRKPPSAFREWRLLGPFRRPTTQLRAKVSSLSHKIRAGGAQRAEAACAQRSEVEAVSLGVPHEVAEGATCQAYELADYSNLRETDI
Description: Membranes were prepared from human embryonic kidney 293 ([…]) cells expressing recombinant human α1D receptor. These were diluted in Assay Buffer (50 mM HEPES, 1 mM EDTA, pH 7.4) to provide a final concentration of membranes that gave a clear window between maximum and minimum specific binding.
as §2, with “10 μL [^3H]-prazosin (0.3 nM final” for “10 μL [^125I]-Iodocyanopindolol (0.036 nM final”, “and […] of test” for “and 10 μL of test”, “obtained for [^3H]-prazosin binding in” for “obtained for [^125I]-Iodocyanopindolol binding in”, “10 μL BMY7378 (10 μM” for “10 μL Propranolol (10 μM”, “mM EDTA, pH 7.4)” for “mM EDTA, 120 mM NaCl, pH 7.4)”
as §3, with “[^3H]-prazosin” for “[^125I]-Iodocyanopindolol”

[3] = target: T4, recombinant human Dopamine Subtype D2s receptors (Homo sapiens, UniProt P14416); assay: Dopamine D2 selectivity assay, [3H]-spiperone binding to membranes; details: inhibition of [3H]-spiperone binding, read-out: D2 bind pIC50 (converted)
T4 construct: purchased Perkin Elmer
T4 sequence (P14416 1-414 isoform P14416-2): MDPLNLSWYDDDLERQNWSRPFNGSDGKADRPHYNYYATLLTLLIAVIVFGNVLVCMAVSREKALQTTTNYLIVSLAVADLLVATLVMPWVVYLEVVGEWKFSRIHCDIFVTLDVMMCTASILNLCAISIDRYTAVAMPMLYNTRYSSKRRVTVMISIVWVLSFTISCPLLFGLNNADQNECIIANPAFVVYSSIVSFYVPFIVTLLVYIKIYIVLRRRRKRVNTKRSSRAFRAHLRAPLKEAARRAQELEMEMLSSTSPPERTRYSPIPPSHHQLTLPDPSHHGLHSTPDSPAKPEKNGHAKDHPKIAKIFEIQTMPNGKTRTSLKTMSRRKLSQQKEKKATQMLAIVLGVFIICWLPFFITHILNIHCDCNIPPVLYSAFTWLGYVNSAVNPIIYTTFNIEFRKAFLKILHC
Description: as §1, with “Dopamine Subtype D2s” for “adrenergic beta 1”, “Perkin Elmer.” for “Euroscreen.”
Assays were performed in U-bottomed 96-well polypropylene plates. 30 μL [^3H]-spiperone (0.16 nM final concentration) and 30 μL of test compound (10× final concentration) were added to each test well. For each assay plate 8 replicates were obtained for [^3H]-spiperone binding in the presence of 30 μL vehicle (10% (v/v) DMSO in Assay Buffer; defining maximum binding) or 30 μL Haloperidol (10 μM final concentration; defining non-specific binding (NSB)). Membranes were then added to achieve a final volume of 300 μL. The plates were incubated for 2 hours at room temperature and then filtered onto PEI coated GF/B filter plates, pre-soaked for 1 hour in Assay Buffer, using a 96-well plate Tomtec cell harvester. Five washes with 250 μL wash buffer (50 mM HEPES, 1 mM EDTA, 120 mM NaCl, pH 7.4) were performed at 4° C. to remove unbound radioactivity. The plates were dried then sealed from underneath using Packard plate sealers and MicroScint-0 (50 μL) was added to each well. The plates were sealed (TopSeal A) and filter-bound radioactivity was measured with a scintillation counter (TopCount, Packard BioScience) using a 3-minute counting protocol.
as §3, with “[^3H]-spiperone” for “[^125I]-Iodocyanopindolol”

Row | Structure (SMILES) | β2 Int Act (Adrenergic β2) | EC50 (Adrenergic β2) [nM] | IC50 [1] [nM] | IC50 [2] [nM] | IC50 [3] [nM]
1 | O=C(CCNCCc1cc(F)cc(F)c1)N(CCNCCc1ccc(O)c2[nH]c(=O)ccc12)C1CCCCCC1 [Example 10, N-Cycloheptyl-3-(3,5-difluorophenethylamino)-N-(2-(2-(8-hydroxy-2-oxo-1,2-dihydroquinolin-5-yl)ethylamino)ethyl)propanamide bis(trifluoroacetate)] | 0.85 | 20 | > 7940 | 316 | 
2 | O=C(CCNCCc1ccc(F)c(F)c1)N(CCNCCc1ccc(O)c2[nH]c(=O)ccc12)C1CCCCC1 [Example 16, N-Cyclohexyl-3-(3,4-difluorophenethylamino)-N-(2-(2-(8-hydroxy-2-oxo-1,2-dihydroquinolin-5-yl)ethylamino)ethyl)propanamide bis(trifluoroacetate)] | 0.85 | 20 | > 10000 | 316 | 
3 | Cc1ccc(F)c(CCNCCC(=O)N(CCNCCc2ccc(O)c3c2OCC(=O)N3)C2CCCCC2)c1 [Example 33, N-Cyclohexyl-3-(2-fluoro-5-methylphenethylamino)-N-(2-(2-(5-hydroxy-3-oxo-3,4-dihydro-2H-benzo[b][1,4]oxazin-8-yl)ethylamino)ethyl)propanamide bis(trifluoroacetate)] | 0.9 | 1.58 | 2510 | 79.4 | 
4 | O=C1COc2c(CCNCCN(C(=O)CCNCCc3cc(Cl)ccc3F)C3CCCCC3)ccc(O)c2N1 [Example 34, 3-(5-Chloro-2-fluorophenethylamino)-N-cyclohexyl-N-(2-(2-(5-hydroxy-3-oxo-3,4-dihydro-2H-benzo[b][1,4]oxazin-8-yl)ethylamino)ethyl)propanamide bis(trifluoroacetate)] | 0.9 | 1.58 | 1000 | 63.1 | 
5 | O=C(CCNCCc1cccc(-c2ccccc2)c1)N(CCNCCc1ccc(O)c2[nH]c(=O)ccc12)C1CCCCCC1 [Example 12, 3-(2-(Biphenyl-3-yl)ethylamino)-N-cycloheptyl-N-(2-(2-(8-hydroxy-2-oxo-1,2-dihydroquinolin-5-yl)ethylamino)ethyl)propanamide bis(trifluoroacetate)] | 0.67 | 50.1 |  | 316 | 126
6 | O=C(CCNCCc1ccc(F)cc1)N(CCNCCc1ccc(O)c2[nH]c(=O)ccc12)C1CCCCCC1 [Example 6, N-Cycloheptyl-3-(4-fluorophenethylamino)-N-(2-(2-(8-hydroxy-2-oxo-1,2-dihydroquinolin-5-yl)ethylamino)ethyl)propanamide bis(trifluoroacetate)] | 0.65 | 31.6 |  | 50.1 | 251
